As a reminder, the inhibition is the change of the read-out against control, counted positive when it falls.

Consider 1 compound from ChEMBL document CHEMBL6092168, “Identification of novel indolinone derivatives as CTSC inhibitors to treat inflammatory bowel disease by modulating inflammatory factors” (Eur J Med Chem, 2024).

Data set [1] deals with T1, Dipeptidyl peptidase 1 (Mus musculus) (UniProt P97821).
T1 sequence (whole entry): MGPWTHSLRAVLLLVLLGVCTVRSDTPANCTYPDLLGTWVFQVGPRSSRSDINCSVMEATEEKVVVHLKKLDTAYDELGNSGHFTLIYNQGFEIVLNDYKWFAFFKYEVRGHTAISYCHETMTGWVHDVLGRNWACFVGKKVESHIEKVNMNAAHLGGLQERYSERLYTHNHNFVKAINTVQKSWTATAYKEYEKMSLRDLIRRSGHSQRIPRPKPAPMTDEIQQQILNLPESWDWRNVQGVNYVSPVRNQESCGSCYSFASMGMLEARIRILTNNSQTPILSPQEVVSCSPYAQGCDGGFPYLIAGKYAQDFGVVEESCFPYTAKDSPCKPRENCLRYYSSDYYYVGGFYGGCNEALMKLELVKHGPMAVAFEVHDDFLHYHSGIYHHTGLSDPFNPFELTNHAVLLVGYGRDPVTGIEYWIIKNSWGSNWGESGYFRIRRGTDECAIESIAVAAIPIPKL
The data set can be described thus: In vivo inhibition of Cathepsin C in C57BL/6 mouse assessed as reduction in cathepsin C activity in bone marrow at 30 mg/kg, po administered once daily for 6 days by fluorescence based microplate reader relative to control. It counts as functional, organism-based. Conditions: time 6.0 day.

The subject of data set [2] is Mus musculus. The data set can be described thus: Anti-inflammatory activity in DSS-induced ulcerative colitis male C57BL/6 mouse model at 60 mg/kg administered twice daily. It counts as functional, organism-based.
Data set [3] relates to Mus musculus. The data set can be described thus: Anti-inflammatory activity in DSS-induced ulcerative colitis male C57BL/6 mouse model assessed as reduction in neutrophil elastase level in serum at 60 mg/kg administered via gavage for 10 days relative to control. It counts as functional. The arrangement: scale not given: the % may be the effect or the level left. Conditions: time 10 day.

Data set [4] is described as follows: Acute toxicity in ICR mouse assessed as change in white blood cell count in blood at 1500 mg/kg, po administered daily for 7 days. It counts as organism-based. Conditions: in vivo, 168 h, time 7 day.
Data set [5] addresses T2, Myeloblastin (Mus musculus) (UniProt Q61096).
T2 sequence (whole entry): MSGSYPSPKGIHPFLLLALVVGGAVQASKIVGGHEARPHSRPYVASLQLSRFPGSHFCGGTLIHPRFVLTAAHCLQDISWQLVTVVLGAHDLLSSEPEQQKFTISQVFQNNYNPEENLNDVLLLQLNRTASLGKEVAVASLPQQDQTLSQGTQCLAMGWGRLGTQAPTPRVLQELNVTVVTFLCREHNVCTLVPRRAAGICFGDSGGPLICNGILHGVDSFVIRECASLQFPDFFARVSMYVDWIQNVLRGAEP
The data set is described as follows: Induction of proteinase 3 degradation in C57BL/6 mouse bone marrow cells assessed as residual activity at 10 uM incubated for 48 hrs by Western blot analysis relative to control. It counts as cell-based. Conditions: Bone marrow cell.

Data set [6] addresses T3, Neutrophil elastase (Mus musculus) (UniProt Q3UP87).
T3 sequence (whole entry): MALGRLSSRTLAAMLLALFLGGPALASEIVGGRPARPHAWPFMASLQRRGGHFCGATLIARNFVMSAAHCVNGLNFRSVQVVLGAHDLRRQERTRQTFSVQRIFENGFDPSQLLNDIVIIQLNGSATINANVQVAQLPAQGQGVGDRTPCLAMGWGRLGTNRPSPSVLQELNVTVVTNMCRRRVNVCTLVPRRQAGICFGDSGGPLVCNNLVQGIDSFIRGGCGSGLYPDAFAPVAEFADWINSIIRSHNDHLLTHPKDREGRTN
The data set can be described thus: Induction of neutrophil elastase degradation in C57BL/6 mouse bone marrow cells assessed as residual activity at 10 uM incubated for 48 hrs by Western blot analysis relative to control. To be noted: Bone marrow cell. It counts as cell-based. A general note: In western blotting, separated proteins are transferred to a membrane and probed.

Data set [7] addresses T1, Dipeptidyl peptidase 1 (Mus musculus). The data set is described as follows: In vivo inhibition of Cathepsin C in C57BL/6 mouse assessed as reduction in cathepsin C activity in blood at 15 mg/kg, po administered once daily for 6 days by fluorescence based microplate reader relative to control. It counts as functional, organism-based. Conditions: time 6.0 day.
Data set [8] relates to Mus musculus. The data set can be described thus: Anti-inflammatory activity in DSS-induced ulcerative colitis male C57BL/6 mouse model assessed as reduction in Cathepsin G level in colon at 60 mg/kg administered via gavage for 10 days relative to control. It counts as functional. Set-up: scale not given: the % may be the effect or the level left. To be noted: time 10 day.

The test system of data set [9] is Mus musculus. The data set can be described thus: Anti-inflammatory activity in DSS-induced ulcerative colitis male C57BL/6 mouse model assessed as increase in IL-10 expression in serum administered via gavage for 10 days by ELISA. To be noted: dose 15-60 mg/kg, time 10.0 day. It counts as functional, organism-based.
The subject of data set [10] is Mus musculus. The data set is described as follows: Anti-inflammatory activity in DSS-induced ulcerative colitis male C57BL/6 mouse model assessed as increase in IL-10 expression in colon administered via gavage for 10 days by ELISA. It counts as functional, organism-based. To be noted: dose 15-60 mg/kg, time 10.0 day. (In general: ELISA stands for enzyme-linked immunosorbent assay.)

The subject of data set [11] is Mus musculus. The data set is described as follows: Anti-inflammatory activity in DSS-induced ulcerative colitis male C57BL/6 mouse model assessed as reduction in neutrophil elastase level in colon at 60 mg/kg administered via gavage for 10 days relative to control. The arrangement: scale not given: the % may be the effect or the level left. It counts as functional. Conditions: time 10 day.

The target of data set [12] is T3, Neutrophil elastase (Mus musculus). The data set is described as follows: In vivo inhibition of neutrophil elastase in C57BL/6 mouse assessed as reduction in neutrophil elastase activity in blood at 30 mg/kg, po administered once daily for 6 days by fluorescence based microplate reader relative to control. It counts as functional, organism-based. Conditions: time 6.0 day.

Data set [13] has as its system Mus musculus. The data set is described as follows: Anti-inflammatory activity in DSS-induced ulcerative colitis male C57BL/6 mouse model assessed as reduction in TNF-alpha expression in serum administered via gavage for 10 days by ELISA. It counts as functional, organism-based. Conditions: dose 15-60 mg/kg, time 10.0 day.
For the next data set, the system named is RAW264.7. The data set can be described thus: Anti-inflammatory activity in mouse RAW264.7 cells assessed as inhibition of LPS-induced TNF-alpha production at 5 uM preincubated for 1 hr followed by LPS addition and measured after 24 hrs by ELISA relative to control. It counts as functional. Set-up: scale not given: the % may be the effect or the level left. To be noted: time 25 hrs.

The subject of data set [14] is Mus musculus. The data set can be described thus: Anti-inflammatory activity in DSS-induced ulcerative colitis male C57BL/6 mouse model assessed as reduction in cathepsin G level in colon at 15 to 30 mg/kg administered via gavage for 10 days. It counts as functional, organism-based. Conditions: dose 15-30 mg/kg, time 10.0 day.
The nature of data set [15]: Acute toxicity in ICR mouse assessed as change in white blood cell count in bone marrow at 1500 mg/kg, po administered daily for 7 days. It counts as organism-based. To be noted: in vivo, 168 h, time 7 day.
The test system of data set [16] is Mus musculus. The data set is described as follows: Anti-inflammatory activity in DSS-induced ulcerative colitis male C57BL/6 mouse model assessed as reduction in Cathepsin C level in colon at 15 to 30 mg/kg administered via gavage for 10 days. To be noted: dose 15-30 mg/kg, time 10.0 day. It counts as functional, organism-based.

Calls of active or inactive are those of the source. No cut-off for these calls is given here.

As to `O=C1Nc2c(cccc2-c2ccc(NC3CCOCC3)cc2)/C1=C/c1ccnc2ccccc12`, the inhibition in data set [1] was 36.5%; in data set [7], below 50%; in data set [12], 42.9%. Moreover, the Activity entry in the data set on Mus musculus [2] is “Active; Therapeutic Effect Is Slightly Better Than 5-Asa But Worse Than Azd7986”; in the data set with Mus musculus [3], 52%; in data set [4], “Non-toxic”; in data set [5] it was 8.71%; in data set [6], 6.65%; with Mus musculus [8], 51%. Moreover, the Activity entry in the data set on Mus musculus [9] is reported as “Dose-dependent-effect; Significant Increase Observed In High Dose Group”; in the data set with Mus musculus [10], “Dose-dependent-effect; Significant Increase Observed In High Dose Group”; with Mus musculus [11], 50%; in the data set with Mus musculus [13], “Dose-dependent-effect; Significant Reduction Observed In High Dose Group”; with RAW264.7, 83.6%; in data set [15], “Non-toxic”. For the same compound, the result in the data set with Mus musculus [14] and in the data set with Mus musculus [16] was inactive.
